Source: patent US20230081390A1, “INHIBITORS OF RAF KINASES” (Kinnate Biopharma Inc., priority 2019, published 2023)

What follows are molecules tested against human RAF1 (Homo sapiens, UniProt P04049) (assay: Protein kinase assay (33P-ATP filter binding), human RAF1, 10-dose IC50). Conditions: MEK1 (K97R) substrate 3 micromolar, ATP 10 micromolar, read-out: RAF-1 IC50.
Format: biochemical
Procedure: In brief, for each reaction, kinase and substrate were mixed in a buffer containing 20 mM HEPES (pH 7.5), 10 mM MgCl2, 1 mM EGTA, 0.02% Brij35, 0.02 mg/mL BSA, 0.1 mM Na3VO4, 2 mM DTT, and […]. All compounds were solubilized in DMSO. Compounds were then added to each reaction mixture via acoustic dispense using an ECHO 550 nanoliter dispenser. For human RAF1 testing, human MEK1 (K97R) was used as a substrate at a concentration of 3 micromolar, with a final ATP concentration of 10 micromolar. […] Reactions were carried out at room temperature for 2 hr and spotted onto P81 ion exchange cellulose chromatography paper (Reaction Biology). […] The percent remaining kinase activity relative to a vehicle-containing (DMSO) kinase reaction was calculated for each kinase/inhibitor pair. IC50 values were calculated using Prism 5 (GraphPad).

Sequence of human RAF1 (P04049 whole entry): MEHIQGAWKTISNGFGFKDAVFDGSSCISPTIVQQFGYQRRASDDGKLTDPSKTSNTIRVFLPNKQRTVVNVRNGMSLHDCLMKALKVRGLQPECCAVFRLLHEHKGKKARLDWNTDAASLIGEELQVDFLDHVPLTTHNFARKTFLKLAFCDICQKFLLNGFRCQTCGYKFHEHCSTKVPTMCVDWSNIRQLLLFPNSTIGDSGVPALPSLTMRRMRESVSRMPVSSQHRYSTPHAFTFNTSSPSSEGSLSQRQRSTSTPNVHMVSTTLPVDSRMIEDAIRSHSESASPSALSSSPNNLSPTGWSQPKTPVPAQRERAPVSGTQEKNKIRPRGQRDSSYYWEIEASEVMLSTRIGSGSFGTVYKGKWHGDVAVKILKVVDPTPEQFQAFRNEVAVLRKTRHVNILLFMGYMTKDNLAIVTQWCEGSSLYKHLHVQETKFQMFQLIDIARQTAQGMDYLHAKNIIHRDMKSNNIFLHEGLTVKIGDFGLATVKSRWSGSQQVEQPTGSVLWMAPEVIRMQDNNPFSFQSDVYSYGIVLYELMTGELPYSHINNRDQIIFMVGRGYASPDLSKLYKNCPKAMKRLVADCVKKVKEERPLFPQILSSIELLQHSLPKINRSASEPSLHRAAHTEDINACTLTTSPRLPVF

Row | Compound | IC50 [nM]
1 | Cc1cc(F)c(NC(=O)N2CCC3C2C3C(F)(F)F)cc1-c1cc(OCCO)nc(N2CCOCC2)c1 (single isomer, unassigned) [Example 69, N-[2-fluoro-5-[2-(2-hydroxyethoxy)-6-(morpholin-4-yl)pyridin-4-yl]-4-methylphenyl]-6-(trifluoromethyl)-2-azabicyclo[3.1.0]hexane-2-carboxamide] | < 10
2 | Cc1cc(F)c(NC(=O)N2CCC3C2C3C(F)(F)F)cc1-c1cc(OCCO)nc(N2CCOCC2)c1 (single isomer, unassigned) [Example 70, N-[2-fluoro-5-[2-(2-hydroxyethoxy)-6-(morpholin-4-yl)pyridin-4-yl]-4-methylphenyl]-6-(trifluoromethyl)-2-azabicyclo[3.1.0]hexane-2-carboxamide] | 10 to 100
3 | Cc1cc(F)c(NC(=O)N2CCC3C2C3C(F)(F)F)cc1-c1cc(OCCO)nc(N2CCOCC2)c1 (single isomer, unassigned) [Example 71, N-[2-fluoro-5-[2-(2-hydroxyethoxy)-6-(morpholin-4-yl)pyridin-4-yl]-4-methylphenyl]-6-(trifluoromethyl)-2-azabicyclo[3.1.0]hexane-2-carboxamide] | 100 to 1000
4 | Cc1cc(F)c(NC(=O)N2CC[C@H](CC(F)(F)F)C2)cc1-c1cc(OCCO)nc(N2CCOCC2)c1 (single isomer, unassigned) [Example 74] | < 10
5 | Cc1cc(F)c(NC(=O)N2CC[C@@H](CC(F)(F)F)C2)cc1-c1cc(OCCO)nc(N2CCOCC2)c1 (single isomer, unassigned) [Example 75] | < 10
6 | Cc1cc(F)c(NC(=O)N2CC[C@@H](OC(F)(F)F)C2)cc1-c1cc(OCCO)nc(N2CCOCC2)c1 (single isomer, unassigned) [Example 77] | < 10
7 | Cc1cc(F)c(NC(=O)N2CC[C@H](OC(F)(F)F)C2)cc1-c1cc(OCCO)nc(N2CCOCC2)c1 (single isomer, unassigned) [Example 78] | < 10
8 | Cc1cc(F)c(NC(=O)N2CC3CCC3(C(F)(F)F)C2)cc1-c1cc(OCCO)nc(N2CCOCC2)c1 (single isomer, unassigned) [Example 82, N-[2-fluoro-5-[2-(2-hydroxyethoxy)-6-(morpholin-4-yl)pyridin-4-yl]-4-methylphenyl]-1-(trifluoromethyl)-3-azabicyclo[3.2.0]heptane-3-carboxamide] | < 10
9 | Cc1cc(F)c(NC(=O)N2CC3CCC3(C(F)(F)F)C2)cc1-c1cc(OCCO)nc(N2CCOCC2)c1 (single isomer, unassigned) [Example 83, N-[2-fluoro-5-[2-(2-hydroxyethoxy)-6-(morpholin-4-yl)pyridin-4-yl]-4-methylphenyl]-1-(trifluoromethyl)-3-azabicyclo[3.2.0]heptane-3-carboxamide] | < 10
10 | Cc1cc(F)c(NC(=O)N2CC[C@@H](C(F)(F)C(F)(F)F)C2)cc1-c1cc(OCCO)nc(N2CCOCC2)c1 (single isomer, unassigned) [Example 84] | < 10
11 | Cc1cc(F)c(NC(=O)N2CCC(C(F)(F)C(F)(F)F)C2)cc1-c1cc(OCCO)nc(N2CCOCC2)c1 (single isomer, unassigned) [Example 85] | < 10
12 | Cc1cc(F)c(NC(=O)N2CCC3(CCC3(F)F)C2)cc1-c1cc(OCCO)nc(N2CCOCC2)c1 (single isomer, unassigned) [Example 90, 1,1-difluoro-N-[2-fluoro-5-[2-(2-hydroxyethoxy)-6-(morpholin-4-yl)pyridin-4-yl]-4-methylphenyl]-6-azaspiro[3.4]octane-6-carboxamide] | < 10
13 | Cc1cc(F)c(NC(=O)N2CCC3(CCC3(F)F)C2)cc1-c1cc(OCCO)nc(N2CCOCC2)c1 (single isomer, unassigned) [Example 91, 1,1-difluoro-N-[2-fluoro-5-[2-(2-hydroxyethoxy)-6-(morpholin-4-yl)pyridin-4-yl]-4-methylphenyl]-6-azaspiro[3.4]octane-6-carboxamide] | < 10
14 | Cc1cc(F)c(NC(=O)N2CCC(C(C)C(F)(F)F)C2)cc1-c1cc(OCCO)nc(N2CCOCC2)c1 (single isomer, unassigned) [Example 100, N-[2-fluoro-5-[2-(2-hydroxyethoxy)-6-(morpholin-4-yl)pyridin-4-yl]-4-methylphenyl]-3-(1,1,1-trifluoropropan-2-yl)pyrrolidine-1-carboxamide] | < 10
15 | Cc1cc(F)c(NC(=O)N2CCC(C(C)C(F)(F)F)C2)cc1-c1cc(OCCO)nc(N2CCOCC2)c1 (single isomer, unassigned) [Example 101, N-[2-fluoro-5-[2-(2-hydroxyethoxy)-6-(morpholin-4-yl)pyridin-4-yl]-4-methylphenyl]-3-(1,1,1-trifluoropropan-2-yl)pyrrolidine-1-carboxamide] | < 10
16 | Cc1cc(F)c(NC(=O)N2CCC(C(C)C(F)(F)F)C2)cc1-c1cc(OCCO)nc(N2CCOCC2)c1 (single isomer, unassigned) [Example 102, N-[2-fluoro-5-[2-(2-hydroxyethoxy)-6-(morpholin-4-yl)pyridin-4-yl]-4-methylphenyl]-3-(1,1,1-trifluoropropan-2-yl)pyrrolidine-1-carboxamide] | < 10
17 | Cc1cc(F)c(NC(=O)N2CCC(C(C)C(F)(F)F)C2)cc1-c1cc(OCCO)nc(N2CCOCC2)c1 (single isomer, unassigned) [Example 103, N-[2-fluoro-5-[2-(2-hydroxyethoxy)-6-(morpholin-4-yl)pyridin-4-yl]-4-methylphenyl]-3-(1,1,1-trifluoropropan-2-yl)pyrrolidine-1-carboxamide] | < 10
18 | Cc1cc(F)c(NC(=O)N2CC[C@]3(C2)CC(F)(F)C3(F)F)cc1-c1cc(OCCO)nc(N2CCOCC2)c1 (single isomer, unassigned) [Example 105] | < 10
19 | Cc1cc(F)c(NC(=O)N2CC[C@@]3(C2)CC(F)(F)C3(F)F)cc1-c1cc(OCCO)nc(N2CCOCC2)c1 (single isomer, unassigned) [Example 106] | < 10
20 | Cc1cc(F)c(NC(=O)N2CCCC3C2C3C(F)(F)F)cc1-c1cc(OCCO)nc(N2CCOCC2)c1 (single isomer, unassigned) [Example 108, N-[2-fluoro-5-[2-(2-hydroxyethoxy)-6-(morpholin-4-yl)pyridin-4-yl]-4-methylphenyl]-7-(trifluoromethyl)-2-azabicyclo[4.1.0]heptane-2-carboxamide] | 1000 to 10000
21 | Cc1cc(F)c(NC(=O)N2CCCC3C2C3C(F)(F)F)cc1-c1cc(OCCO)nc(N2CCOCC2)c1 (single isomer, unassigned) [Example 109, N-[2-fluoro-5-[2-(2-hydroxyethoxy)-6-(morpholin-4-yl)pyridin-4-yl]-4-methylphenyl]-7-(trifluoromethyl)-2-azabicyclo[4.1.0]heptane-2-carboxamide] | < 10
22 | Cc1cc(F)c(NC(=O)N2CCCC3C2C3C(F)(F)F)cc1-c1cc(OCCO)nc(N2CCOCC2)c1 (single isomer, unassigned) [Example 110, N-[2-fluoro-5-[2-(2-hydroxyethoxy)-6-(morpholin-4-yl)pyridin-4-yl]-4-methylphenyl]-7-(trifluoromethyl)-2-azabicyclo[4.1.0]heptane-2-carboxamide] | < 10
